Results taken from patent US8765726B2, “Use of pyridone derivatives in the prevention or treatment of tissue or organ toxicity induced by cytotoxic agents and radiation” (Shanghai Genomics, Inc., priority 2006, dated 2014).

Tests used:
[1] = system: radiation-induced lung injuries; experiment: Example 1 repeated with F351 on radiation-induced lung injuries; assay type: in vivo; settings: Prophylactic and therapeutic administration, irradiated mice, twenty per group; 'should show'
Excerpt: The experiments in Example 1 are repeated, except that 5-methylpyridin-1(4-hydroxyphenyl)-2-(1H)-one (F351) rather than Pirfenidone is used, with twenty mice in each group.

[2] = system: Adriamycin-induced renal toxicity; experiment: Adriamycin-induced renal toxicity in rats (urine proteins, renal pathology); assay type: in vivo, Wistar rats; settings: Adriamycin 7.5 mg/kg tail vein day 1, F351 250 mg/kg per day gavage for 12 weeks
Method: (§1) 20 male Wistar rats (with body weight 180-220 g) were randomly divided into three groups with 4 rats in control group, 8 rats in Adriamycin-treated group, and 8 rats in Adriamycin+F351-treated group. All the animals (except for those in control group) were injected with 7.5 mg/kg adriamycin by tail vein injection on day 1 of the study. Animals in Adriamycin+F351-treated group were administrated by gauvage with 250 mg/kg F351 per day for 12 weeks starting on day 1 of the study. Animals in the control group were injected with PBS, instead. The study lasted for 12 weeks.
Rat urine was collected 24 hours before the end of the study and amount of urine proteins was determined. Renal tissues were also collected for pathology examination.
as §1, with “injection at” for “injection on”, “study. Animals in control group were injected with PBS instead.” for “study.”, “day 1.” for “day 1 of the study. Animals in the control group were injected with PBS, instead. The study lasted for 12 weeks.”

[3] = system: Bleomycin-induced lung fibrosis; experiment: Bleomycin-induced lung fibrosis in mice (pathology, lung index); assay type: in vivo, C57B6 mice; settings: Bleomycin 5 mg/kg intratracheal day 1, F351 100 mg/kg/day or dexamethasone 3 mg/kg per day gavage for 28 days
Method: Forty eight (48) C57B6 mice (with body weight 16-18 g), half male and half female, were used in the study. Animals were divided into four groups with 12 animals per group. All the animals (except for those in control group) were injected with 5 mg/kg Bleomycin in the volume of 50 ul by intratracheal instillation on day 1 of the study. Animals in control group were injected by PBS instead. […] Pathology examination was performed at day 28.

[4] = system: Cyclosporine A-induced nephrotoxicity; experiment: Cyclosporine A-induced nephrotoxicity in rats (mean arterial pressure, kidney fibrosis score); assay type: in vivo, Wistar rats; settings: CsA 15 mg/kg subcutaneous + F351 100 mg/Kg/day, once a day for 28 days, low salt diet
Method: 24 male Wistar rats (with body weight 180-220 g) were given low salt diet for 7 days before the study and randomly divided into three groups with 8 rats per group. The groups were named as control group, cyclosporine A (CsA)-treated group, and CsA+[…]-treated group. [table] The animals were treated once a day for 28 days as indicated in the above table. Once every 7 days, the animals were weighed and the dose of CsA and […] were adjusted in terms of body weight. Low salt diet was given to the animals during the whole study period. Mean arterial pressure was determined in alert state of the animals at the end of the study. Renal tissues were also collected for pathology examination.

[5] = system: radiation-induced lung injuries; experiment: Radiation-induced lung injuries in mice (bronchial alveolar lavage cell count, whole-lung hydroxyproline); assay type: in vivo, BALB/C mice; parameters: unit not given here; settings: 1200 cGy chest
Excerpt: Irradiation source: Varian 600C linear accelerator, 6MV X ray
Irradiation method: The mice, six per row, were each detained in an organic-glass cage. The cage was lid with a 1.5 cm thick organic glass plate to compensate the buildup effect. The source-to-skin distance was 100 cm, the irradiation field was 2.5×18 cm. The animal's head and abdomen were sheltered by the lead baffle of the collimator, and thus only the chest was exposed to the irradiation. The single dose of irradiation is 1200 cGy. A sealed transfer box equipped with an air filtering device should be used to transfer the animals from or back to the animal house.
Animals: 10-week old BALB/C mice
Control Model group (60 mice): The mice were irradiated but not treated with the compound.
(§2) Prophylaxis group (60 mice): The medication at a predetermined dose was started 2 days before the irradiation. The irradiation method and the dosage were the same as in the control group. Pirfenidone was administered by gauvage (200 mg/kg, dissolved in 0.5% CMC-Na and administrated at the volume of 0.1 ml/10 g) once a day for 3 months.
as §2, with “Treatment” for “Prophylaxis”, “medication” for “medication at a predetermined dose”, “at day 0 of” for “2 days before”, “and” for “and the”
Blank control group (60 mice): The mice were not irradiated, and were only administered by gauvage with 0.5% CMC-Na once a day for 3 months.
The mice of each group were observed once a day after irradiation to examine the mortality. The cytometry and cell sorting of the lavage, collagen content measurement (hydroxyproline), pathomorphological observation were conducted periodically after medicament treatment.
Cytometry of the bronchial alveolar lavage liquid: the right lung was perfused with normal saline. 1.5-2.0 ml lavage liquid was collected into an Ependoff tube by gentle suction. The content of the inflammatory cells was counted manually by use of a haemocytometer immediately after collection of the bronchial alveolar lavage liquid.
Measurement of the hydroxyproline content: The measurement was performed with isolated lung tissue by following the instruction in the hydroxyproline kit.
Histopathologic examination: The isolated lung tissue was fixed in formaldehyde solution, pafarrin-imbeded after dehydration, and then subjected to HE staining and Masson trichrome staining. Evaluation criteria: Radiation-induced lung injuries was evaluated according to the standard semi-quantitative scoring of the Ashcroft interstitial pulmonary fibrosis.

[6] = system: radiation-induced lung injuries; experiment: Tolerance to the therapeutic irradiation dosage, prophylactic Pirfenidone in irradiated mice; assay type: in vivo; settings: Prophylactic administration, 200 mg/kg gavage once a day started 2 days before irradiation
Method: (a) Method: the Same as Described in Example 1. Prophylaxis group (60 mice): The medication was started 2 days before the irradiation. The mice were divided into two groups. The animals were administered by gauvage with Pirfenidone (200 mg/kg, dissolved in 0.5% CMC-Na and administrated at the volume of 0.1 ml/10 g) once a day for 3 months. Each group consisted of 60 mice. The mice of each group were observed once a day after irradiation to examine the dyspnea and mortality. The lung weighing, cytometry and cell sorting of the bronchial alveolar lavage liquid, collagen content measurement (hydroxyproline), measurement of cytokines (ACE, TGF-β, TGF-α etc) in the plasma, and pathomorphological observation were conducted periodically after the medicament treatment.

[7] = Blood level of Pirfenidone capsule in healthy subjects on repeated dosing; assay type: in vivo, human; settings: Twelve healthy subjects, capsule 400 mg once a day or three times a day for 5 days
Method: Twelve healthy subjects were administered with Pirfenidone capsule at the dose of 400 mg, once a day or three times a day. The medication continued for 5 days. The blood level of the medicine was measured every day.

[8] = system: radiation-induced lung fibrosis; experiment: Prevention and/or treatment of radiation-induced lung fibrosis in mice (macrophages, fibrosis evaluation, hydroproline); assay type: in vivo, BalB/C male mice; settings: for Cytometry of macrophages / Evaluation on lung fibrosis / Hydroproline level: P + R group: 200 mg/kg/day from two days before 1200 cGy chest radiation for 12 weeks
Method: BalB/C male mice were randomly divided into three groups, namely, Control group (C group), Radiation group (R group), and Pirfenidone+Radiation (P+R group). All the animals were given single dose radiation on chest at 1200 cGy. Drugs were administrated two days before radiation for 12 weeks at 200 mg/kg/day. Examination includes cytometry of macrophages (performed 4 weeks and 8 weeks after drug administration), determination of hydroproline level (performed 16 weeks and 24 weeks after drug administration), and pathology examination of lung tissues by HE staining and Masson staining and evaluation of lung fibrosis by Ashcroft semi-quantitative evaluation standard under a microscope (performed 16 weeks and 24 weeks after drug administration).

[9] = system: bleomycin-induced lung fibrosis; experiment: Bleomycin-induced lung fibrosis in rat: side effects of dexamethasone compared with pirfenidone
Excerpt: Dexamethasone treatment was used as positive control in one study was designed to investigate the effects of pirfenidone on bleomycin-induced lung fibrosis in rat.

[10] = Prophylaxis group: 200 mg/kg gavage once a day started 2 days before irradiation, Month 2
[11] = Prophylaxis group: 200 mg/kg gavage once a day started 2 days before irradiation, Month 3
[12] = Prophylaxis group: 200 mg/kg gavage once a day started 2 days before irradiation, Month 4
[13] = Prophylaxis group: 200 mg/kg gavage once a day started 2 days before irradiation, Month 5
[14] = Prophylaxis group: 200 mg/kg gavage once a day started 2 days before irradiation, Month 6
[15] = Treatment group: 200 mg/kg gavage once a day from day 0 of irradiation, Month 2
[16] = Treatment group: 200 mg/kg gavage once a day from day 0 of irradiation, Month 3
[17] = Treatment group: 200 mg/kg gavage once a day from day 0 of irradiation, Month 4
[18] = Treatment group: 200 mg/kg gavage once a day from day 0 of irradiation, Month 5
[19] = Treatment group: 200 mg/kg gavage once a day from day 0 of irradiation, Month 6
[20] = Bleomycin-treated rats plus test drug

Cc1ccc(=O)n(-c2ccc(O)cc2)c1 [F351, 5-methyl-1-(4-hydroxylphenyl)-2-(1H)-pyridone]
Amount of inflammatory cells in the bronchial alveolar lavage liquid [1]: reduce the amount of inflammatory cells | Degree of kidney fibrosis by pathology examination [2]: reduced the degree of kidney fibrosis | Amount of Urine Proteins ([2]; x ± s): 54.32 ± 10.88 mg/24 hrs | Lung Index (±S) [3]: 1511.71 ± 945.55 | Pathological changes of the lung (pathology examination, HE and Masson staining) ([3]; day 28): significant improvement | Score on Kidney Fibrosis [4]: 0.62 ± 0.15 | Mean Arterial Pressure ([4]; x ± s): 16.02 ± 0.27 kPa

Cc1ccc(=O)n(-c2ccccc2)c1 [Pirfenidone]
Measurement of hydroxyproline in the whole lung ([5]; Prophylaxis group: 200 mg/kg gavage once a day started 2 days before irradiation, Month 1): 43.85 | Cell count of bronchial alveolar lavage liquid [5, 10]: 2.27 | Measurement of hydroxyproline in the whole lung [5, 10]: 43.81 | Cell count of bronchial alveolar lavage liquid [5, 11]: 2.03 | Measurement of hydroxyproline in the whole lung [5, 11]: 50.46 | Cell count of bronchial alveolar lavage liquid [5, 12]: 4.5 | Measurement of hydroxyproline in the whole lung [5, 12]: 56.98 | Cell count of bronchial alveolar lavage liquid [5, 13]: 27.7 | Measurement of hydroxyproline in the whole lung [5, 13]: 58.1 | Cell count of bronchial alveolar lavage liquid [5, 14]: 15 | Measurement of hydroxyproline in the whole lung [5, 14]: 58.15 | Measurement of hydroxyproline in the whole lung ([5]; Treatment group: 200 mg/kg gavage once a day from day 0 of irradiation, Month 1): 36.11 | Cell count of bronchial alveolar lavage liquid [5, 15]: 5.78 | Measurement of hydroxyproline in the whole lung [5, 15]: 46.36 | Cell count of bronchial alveolar lavage liquid [5, 16]: 1.04 | Measurement of hydroxyproline in the whole lung [5, 16]: 52.13 | Cell count of bronchial alveolar lavage liquid [5, 17]: 8.04 | Measurement of hydroxyproline in the whole lung [5, 17]: 60.38 | Cell count of bronchial alveolar lavage liquid [5, 18]: 45.55 | Measurement of hydroxyproline in the whole lung [5, 18]: 67.92 | Cell count of bronchial alveolar lavage liquid [5, 19]: 39.29 | Measurement of hydroxyproline in the whole lung [5, 19]: 68.24 | Cell count in the bronchial alveolar lavage liquid versus control group [6]: lower than that of the control group | Day on which blood stasis was achieved (blood level of the medicine) [7]: 3 days | Toxic effect on BalB/C mice ([8]; 200 mg/kg/day for 12 weeks): little toxic effect | Cytometry of macrophages ([8]; 4 weeks): 6.67 ± 2.04 1 × 10^4/ml | Cytometry of macrophages ([8]; 8 weeks): 2.27 ± 1.41 1 × 10^4/ml | Evaluation on lung fibrosis ([8]; 16 weeks): 29.15 ± 18.74 | Hydroproline level ([8]; 16 weeks): 67.65 ± 11.99 µg/mg | Evaluation on lung fibrosis ([8]; 24 weeks): 19.46 ± 6.67 | Hydroproline level ([8]; 24 weeks): 79.15 ± 10.90 µg/mg

C[C@@H]1C[C@H]2[C@@H]3CCC4=CC(=O)C=C[C@]4(C)[C@@]3(F)[C@@H](O)C[C@]2(C)[C@@]1(O)C(=O)CO [dexamethasone]
Lung Index (±S) [3]: 1083.90 ± 289.66 | Mortality rate [9, 20]: 64.3% | Number of dead animal [9, 20]: 9/14 | Body weight ([9]; rat, in vivo): Loss of body weight
